These compounds were tested against T1, human ferroportin (Homo sapiens, UniProt Q9NP59) (assay: In-vitro ferroportin internalization assay (luciferase reporter)). Settings: average pEC50; stably-transfected CHO cell line expressing human ferroportin tagged to a luciferase reporter; 6 h incubation with test compounds.
T1 construct: luciferase reporter (probably NanoLuc: read with the Nano-Glo Luciferase Assay System); expressed in transfected cells; host or cells: CHO cells, stably transfected, doxycycline-inducible expression
T1 sequence (Q9NP59 1-571): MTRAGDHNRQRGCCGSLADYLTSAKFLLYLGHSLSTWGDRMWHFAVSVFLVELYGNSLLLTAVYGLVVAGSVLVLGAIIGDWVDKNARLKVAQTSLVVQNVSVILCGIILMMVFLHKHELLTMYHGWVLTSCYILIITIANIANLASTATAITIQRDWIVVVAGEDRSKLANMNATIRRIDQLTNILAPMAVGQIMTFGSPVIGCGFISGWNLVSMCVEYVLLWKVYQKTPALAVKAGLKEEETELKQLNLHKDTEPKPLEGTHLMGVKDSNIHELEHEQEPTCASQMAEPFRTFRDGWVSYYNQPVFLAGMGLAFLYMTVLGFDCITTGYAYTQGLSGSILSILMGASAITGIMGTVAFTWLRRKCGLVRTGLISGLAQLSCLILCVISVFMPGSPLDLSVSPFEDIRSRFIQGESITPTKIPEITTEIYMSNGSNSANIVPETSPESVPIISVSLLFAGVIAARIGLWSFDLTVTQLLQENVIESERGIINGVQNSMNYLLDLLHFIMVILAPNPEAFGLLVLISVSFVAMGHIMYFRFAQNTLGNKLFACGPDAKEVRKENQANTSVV
Format: cell-based
Method: The protocol for this assay is generally as described in WO2018/128828, incorporated herein by reference in its entirety. Functional internalization of ferroportin protein was measured using a stably-transfected CHO cell line expressing the human ferroportin tagged to a luciferase reporter. Cells were plated for 24 h in the presence of ferric ammonium citrate (FAC). Ferroportin protein expression was induced with doxycycline for 24 h. The next day, the compounds were added. Test compounds were dissolved in DMSO. Cells were incubated with the test compounds for 6 h, and subsequently luciferase activity was measured using the Nano-Glo Luciferase Assay System and Glomax (Promega, Madison, Wis.).
The average pEC50 was determined for the test compounds.
`Fc1cccnc1CNc1nccc2oc(CCNCCc3ncc(Cc4ccccc4)[nH]3)nc12` [Compound 62] gave a pEC50 of 7.7. `Cc1nc(CCNCCc2nc3c(NCc4ncccc4F)ncnc3s2)[nH]c1-c1ccccc1` [Compound 64, N-[(3-fluoropyridin-2-yl)methyl]-2-(2-{[2-(4-methyl-5-phenyl-1H-imidazol-2-yl)ethyl]amino}ethyl)-[1,3]thiazolo[5,4-d]pyrimidin-7-amine] was tested, and the pEC50 was 7. In the case of `Fc1ccc(-c2cnc(CCNCCc3nc4c(NCc5ncccc5F)ncnc4s3)[nH]2)cc1` [Compound 68, 2-[2-({2-[5-(4-fluorophenyl)-1H-imidazol-2-yl]ethyl}amino)ethyl]-N-[(3-fluoropyridin-2-yl)methyl]-[1,3]thiazolo[5,4-d]pyrimidin-7-amine], the pEC50 is reported as 5.8. `Oc1cc2oc(CCNCCc3nc4ccccc4[nH]3)nc2c(NCc2ncccc2F)n1` [Compound 59, 2-(2-{[2-(1H-1,3-benzodiazol-2-yl)ethyl]amino}ethyl)-4-{[(3-fluoropyridin-2-yl)methyl]amino}-[1,3]oxazolo[4,5-c]pyridin-6-ol] showed a pEC50 of 6.2. With `COc1cc2sc(CCNCCc3nc4ccccc4[nH]3)nc2c(NCc2ncccc2F)n1` [Compound 19, 2-(2-{[2-(1H-1,3-benzodiazol-2-yl)ethyl]amino}ethyl)-N-[(3-fluoropyridin-2-yl)methyl]-6-methoxy-[1,3]thiazolo[4,5-c]pyridin-4-amine] the pEC50 was 6.2. Compound `Fc1cccnc1CNc1ncnc2sc(C(F)CNCCc3nc4ccccc4[nH]3)nc12` (centres unmarked) [Compound 30, 2-(2-{[2-(1H-1,3-benzodiazol-2-yl)ethyl]amino}-1-fluoroethyl)-N-[(3-fluoropyridin-2-yl)methyl]-[1,3]thiazolo[5,4-d]pyrimidin-7-amine] has a pEC50 of 7.3. With `c1ccc(CNc2ncnc3sc(CCNCCc4nc5ccccc5[nH]4)nc23)nc1` [Compound 5, 2-(2-{[2-(1H-1,3-benzodiazol-2-yl)ethyl]amino}ethyl)-N-[(pyridin-2-yl)methyl]-[1,3]thiazolo[5,4-d]pyrimidin-7-amine] the pEC50 was 6.8. For `C[C@@H](Cc1nc2c(NCc3ncccc3F)ncnc2s1)NCCc1nc2ccccc2[nH]1` [Compound 28, 2-[(2S)-2-{[2-(1H-1,3-benzodiazol-2-yl)ethyl]amino}propyl]-N-[(3-fluoropyridin-2-yl)methyl]-[1,3]thiazolo[5,4-d]pyrimidin-7-amine], the pEC50 was 6.3. Compound `Fc1cccnc1CNc1ncnc2sc(CCNCCc3ncc(-c4cccnc4)[nH]3)nc12` [Compound 60, N-[(3-fluoropyridin-2-yl)methyl]-2-[2-({2-[5-(pyridin-3-yl)-1H-imidazol-2-yl]ethyl}amino)ethyl]-[1,3]thiazolo[5,4-d]pyrimidin-7-amine] has a pEC50 of 5.8. `Fc1cccnc1CNc1nccc2sc([C@H](F)CNCCc3nc4ccccc4[nH]3)nc12` [Compound 82, 2-[(1R)-2-{[2-(1H-1,3-benzodiazol-2-yl)ethyl]amino}-1-fluoroethyl]-N-[(3-fluoropyridin-2-yl)methyl]-[1,3]thiazolo[4,5-c]pyridin-4-amine] showed a pEC50 of 6.4. For `Fc1cccnc1CNc1nccc2oc(CCNCCc3ncc(CC4CC4)[nH]3)nc12` [Compound 63, 2-[2-({2-[5-(cyclopropylmethyl)-1H-imidazol-2-yl]ethyl}amino)ethyl]-N-[(3-fluoropyridin-2-yl)methyl]-[1,3]oxazolo[4,5-c]pyridin-4-amine], the pEC50 was 5.1. For `Fc1cccnc1CNc1ncnc2sc(CCNCC(F)c3nc4ccccc4[nH]3)nc12` (centres unmarked) [Compound 45, 2-(2-{[2-(1H-1,3-benzodiazol-2-yl)-2-fluoroethyl]amino}ethyl)-N-[(3-fluoropyridin-2-yl)methyl]-[1,3]thiazolo[5,4-d]pyrimidin-7-amine], the pEC50 was 6.4. `Cc1nc(CCNCCc2nc3c(NCc4ncccc4F)nccc3s2)[nH]c1C` [Compound 73, 2-(2-{[2-(4,5-dimethyl-1H-imidazol-2-yl)ethyl]amino}ethyl)-N-[(3-fluoropyridin-2-yl)methyl]-[1,3]thiazolo[4,5-c]pyridin-4-amine] was tested, and the pEC50 was 7.6. For `O=c1c2ccccc2[nH]n1CCNCCc1nc2c(NCc3ncccc3F)ncnc2s1` [Compound 34, 2-(2-{[2-(7-{[(3-fluoropyridin-2-yl)methyl]amino}-[1,3]thiazolo[5,4-d]pyrimidin-2-yl)ethyl]amino}ethyl)-2,3-dihydro-1H-indazol-3-one], the pEC50 was 5.1. `Fc1cccnc1CNc1ncnc2sc(CCNCc3nc4ccccc4[nH]3)nc12` [Compound 7, 2-(2-{[(1H-1,3-benzodiazol-2-yl)methyl]amino}ethyl)-N-[(3-fluoropyridin-2-yl)methyl]-[1,3]thiazolo[5,4-d]pyrimidin-7-amine] showed a pEC50 of 6.7. `C[C@@H](CNCCc1nc2c(NCc3ncccc3F)ncnc2s1)c1nc2ccccc2[nH]1` [Compound 53, 2-(2-{[(2S)-2-(1H-1,3-benzodiazol-2-yl)propyl]amino}ethyl)-N-[(3-fluoropyridin-2-yl)methyl]-[1,3]thiazolo[5,4-d]pyrimidin-7-amine] was tested, and the pEC50 was 7.3. `Cc1ncc(-c2cc(CNCCc3nc4c(NCc5ncccc5F)ncnc4s3)c(Cl)s2)[nH]1` [Compound 69, 2-[2-({[2-chloro-5-(2-methyl-1H-imidazol-5-yl)thiophen-3-yl]methyl}amino)ethyl]-N-[(3-fluoropyridin-2-yl)methyl]-[1,3]thiazolo[5,4-d]pyrimidin-7-amine] gave a pEC50 of 5.2. With `Fc1cccnc1CNc1nccc2sc(CCNCCc3nc4ccccc4[nH]3)nc12` [Compound 14, 2-(2-{[2-(1H-1,3-benzodiazol-2-yl)ethyl]amino}ethyl)-N-[(3-fluoropyridin-2-yl)methyl]-[1,3]thiazolo[4,5-c]pyridin-4-amine] the pEC50 was 7.8. With `Oc1nc(NCc2ncccc2F)c2nc([C@H](F)CNCCc3nc4ccccc4[nH]3)sc2n1` [Compound 83, 2-[(1R)-2-{[2-(1H-1,3-benzodiazol-2-yl)ethyl]amino}-1-fluoroethyl]-7-{[(3-fluoropyridin-2-yl)methyl]amino}-[1,3]thiazolo[5,4-d]pyrimidin-5-ol] the pEC50 was 7.1. `Fc1cccnc1CNc1nccc2oc(CCNCCc3ncc(C(F)(F)F)[nH]3)nc12` [Compound 57, N-[(3-fluoropyridin-2-yl)methyl]-2-[2-({2-[5-(trifluoromethyl)-1H-imidazol-2-yl]ethyl}amino)ethyl]-[1,3]oxazolo[4,5-c]pyridin-4-amine] gave a pEC50 of 5.4. Work on `Fc1cccnc1CNc1ncnc2sc(CCNCCc3ncc(Cc4ccccc4)[nH]3)nc12` [Compound 43, 2-(2-{[2-(5-benzyl-1H-imidazol-2-yl)ethyl]amino}ethyl)-N-[(3-fluoropyridin-2-yl)methyl]-[1,3]thiazolo[5,4-d]pyrimidin-7-amine] yielded a pEC50 of 8.4. `Oc1cccc(CNCCc2nc3c(NCc4ncccc4F)nccc3o2)c1` [Compound 54, 3-({[2-(4-{[(3-fluoropyridin-2-yl)methyl]amino}-[1,3]oxazolo[4,5-c]pyridin-2-yl)ethyl]amino}methyl)phenol] was tested, and the pEC50 was 5.1. Compound `Nc1nc(NCc2ncccc2F)c2nc(CCNCCc3nc4ccccc4[nH]3)sc2n1` [Compound 21, 2-(2-{[2-(1H-1,3-benzodiazol-2-yl)ethyl]amino}ethyl)-N7-[(3-fluoropyridin-2-yl)methyl]-[1,3]thiazolo[5,4-d]pyrimidine-5,7-diamine] has a pEC50 of 6.2.
